Data reported in US11505592B2, “Diagnosis and therapy of multiple sclerosis” (PRINDEX S.R.L., priority 2015, dated 2022).

Key:
MS IgG = test: Indirect ELISA of MS IgG binding to receptor peptides; parameters: species or system human; details: 100 μM peptide; 200 μg immunoglobulins
Experimental: FIG. 6: Dose-response curves of the interaction between MS sera and DDSK peptide. (A) Sera of Multiple Sclerosis patients and Control (control group is defined in material and method below) (200 μg) were incubated with different concentrations (50-100-250 μM) of peptide DDSK. For the detection, inventors used a secondary antibody anti human IgG conjugated with HRP and (3,3′,5,5′-Tetramethylbenzidine) TMB solution that was added for each well and incubated for 15-30 min. Equal volume of stopping solution (2 M H2SO4) was added to the plate and absorbance (optical density) of plate was read at 450 nm. The statistical analysis derived from 9 experiments. Values are mean±SEM. *P<0.05 MS vs CTRL (B) Linear representation of dose-response curve Values are mean±SEM. *P<0.05 MS vs CTRL.
FIGS. 7A, 7B, 7C and 7D: MS sera recognize specially receptor's peptides. […] Equal volume of stopping solution (2 M H2SO4) was added to the plate and absorbance (optical density) of plate was read at 450 nm. […]
A. Sera of Multiple Sclerosis patients and Control (200 μg) were incubated in absence (uncoated) or presence of 100 μM of DDSK peptide. […] Equal volume of stopping solution (2 M H2SO4) was added to the plate and absorbance (optical density) of plate was read at 450 nm. […]
Diluted peptide (20 μg/ml) was coated to the wells of a PVC microtiter plate and incubated at 4° C. overnight. […] For the detection, we used a secondary antibody anti human (recognized constant region of the patient antibody conjugated with HRP and (3,3′,5,5′-Tetramethylbenzidine) TMB solution that was added for each well and incubated for 15-30 min. Equal volume of stopping solution (2 M H2SO4) was added to the plate and absorbance (optical density) of plate was read at 450 nm.
To evaluate the peptide concentration to use for ELISA assay we performed a dose-response curve. […] (named DDSK in the figures) and the absorbance (optical density) of plate was read at 450 nm. […]

MO3-13 cells = test: Determination of reactive oxygen species (DCF fluorescence) in MO3-13 cells; format: cell-based, human; details: 50 μM peptide 30 min, then 200 μg/ml IgG MS 30 min
Experimental: (§1) FIG. 10A: DDSK peptide reverts the effects of Ig from MS patients on ROS levels in MO3-13 cells. MO3-13 cells were grown to semi-confluence in 24 multiwell plates and incubated for 18 h in medium containing 0.2% FBS. The cells were washed twice with FBS free medium, incubated with 50 μM of DDSK for 30 min and then with 200 μg/ml of IgG from Control (IgGCtr) or MS (IgGMS) patients for 30 min. Then, the cells were incubated with 10 μM DCHF-DA for 10 min, washed three times and DCF fluorescence was measured using a plate reader fluorometer. The histograms show the mean+/−SEM values obtained in 5 different experiments from 7 control and 7 MS subjects. # p<0.05 vs IgGCtr; *p<0.05 vs IgGMS.
as §1, with “MO3-13” for “FIG. 10A: DDSK peptide reverts the effects of Ig from MS patients on ROS levels in MO3-13 cells. MO3-13”, “Scrambled peptide (Sc)” for “DDSK”, “obtained” for “obtained in 5 different experiments”, “3” for “7”, “subjects.” for “subjects. # p<0.05 vs IgGCtr;”, “IgGCtr.” for “IgGMS.”
ROS levels were determined using the membrane-permeant fluorogenic probe 5,6-carboxy-2′,7′-dichlorofluoresceindiacetate, DCHFDA (Molecular Probes, Leiden, the Netherlands). The assay was based on the fluorescence detection of dichlorofluorescein (DCF), formed by ROS-mediated oxidation of the non-fluorescent precursor, dichlorofluorescin.
MO3-13 cells were grown to semi-confluence in 24 multiwell plates (45000 cell/well) and incubated for 18 h in medium containing 0.2% FBS before the experiments. […] DCF fluorescence was measured using the plate reader Fluoroskan Ascent FL fluorometer (Thermo Electron Oy, Vantaa, Finland) and data analyzed by Ascent software.

MS sera = test: PEPSCAN-based ELISA, binding of MS sera to library peptides; parameters: species or system human; details: ELISA binding value, MS sera n = 9
From the text: (§2) The linear and CLIPS peptides are synthesized based on the amino acid sequence of the target protein using standard Fmoc-chemistry and deprotected using […] with scavengers. The constrained peptides are synthesized on chemical scaffolds in order to reconstruct conformational epitopes, using Chemically Linked Peptides on Scaffolds (CLIPS) technology (Timmerman et al. (2007). For example, the single looped peptides are synthesized containing a dicysteine, which was cyclized by treating with alpha, alpha′-dibromoxylene and the size of the loop is varied by introducing cysteine residues at variable spacing. If other cysteines besides the newly introduced cysteines are present, they are replaced by alanine. The side-chains of the multiple cysteines in the peptides are coupled to CLIPS templates by reacting onto credit-card format polypropylene PEPSCAN cards (455 peptide formats/card) with a 0.5 mM solution of CLIPS template such as 1,3-bis (bromomethyl) benzene in ammonium bicarbonate (20 mM, pH 7.9)/acetonitrile (1:1(v/v)). The cards are gently shaken in the solution for 30 to 60 minutes while completely covered in solution. Finally, the cards are washed extensively with excess of H2O and sonicated in distrupt-buffer containing 1 percent SDS/0.1 percent beta-mercaptoethanol in PBS (pH 7.2) at 70° C. for 30 minutes, followed by sonication in H2O for another 45 minutes.
(§3) The binding of antibody to each peptide is tested in a PEPSCAN-based ELISA. The 455-well credit card format polypropylene cards containing the covalently linked peptides are incubated with primary antibody solution for example consisting of 1/1000 diluted serum in blocking solution, for example 4% horse serum, 5% ovalbumin (w/v) in PBS/1% Tween. After washing, the peptides are incubated with a 1/1000 dilution of antibody peroxidase conjugate for one hour at 25° C. After washing, the peroxidase substrate 2,2′-azino-di-3-ethylbenzthiazoline sulfonate (ABTS) and 2 microlitres of 3 percent H2O2 are added. After one hour, the color development are measured. The color development are quantified with a charge coupled device (CCD)-camera and an image processing system (Slootstra et al., 1996).
(§4) The raw data are optical values obtained by a CCD-camera calibrated to export absorption values compatible with a standard 96-well plate ELISA-reader. First the CCD-camera makes a picture of the card before peroxidase coloring and then again a picture after the peroxidase coloring. These two pictures are substracted from each other yielding a binding value for each peptide.
(§5) All peptides have been synthesized in a peptide array format and the binding of 20 different sera to all peptide libraries were measured in an ELISA based set up following the procedure described in detail in the method section “Peptide synthesis and screening assays”. In particular 2 sets of experiments were performed on the 2 libraries by using 2 different dilutions of the human patients sera. In the first set of experiment the 20 sera were used at 1:2500 dilutions, while in the second experiment the dilution of the sera was 1:1000. The binding of the different sera to all peptides was quantified and analyzed in detail (Tables 1 and 2, FIGS. 15A, B, C, D and […]

CTRL sera = test: PEPSCAN-based ELISA, binding of control (CTRL) sera to library peptides; parameters: species or system human; details: ELISA binding value, CTRLs n = 10
From the text: as §2, §3, §4, §5

Sequence	MEAN MS (MS sera; NOX2 library)	MEAN CTRL (CTRL sera; NOX2 library)	MEAN MS (MS sera; 5HT2A receptor library)	MEAN CTRL (CTRL sera; 5HT2A receptor library)	also measured
LYGYRWPLPSKL					binding of MS IgG to peptide respect to scrambled (MS IgG): bind specifically
TWYAHNCRLQ [Scrambled peptides, scrambled peptide used as negative control, reference compound]					effect of peptide preincubation on ROS levels of IgG MS treated cells (MO3-13 cells): did not influence
CQKISEWGKIKESPIPCQNESYLNFARKRIKNC [SEQ ID NO: 69]	855.111	458.3			
ESYLNFARK [SEQ ID NO: 107]	535.667	296.3			
LTILYGYRWPAASKL [Peptide 3]			653.28	322.35	
CFNWTVDSENRTNLCMDILSEENTSLSSC [Peptide 30]			312.00	174.90	
CMQLNDDTRLYSNDCSGEANTSDAFNWTC [Peptide 15]			497.78	257.25	
CMDILSEENTSLSSCMQLNDDTRLYSNDC [Peptide 21]			392.28	223.85	
TVDSENRTNLAAEGC [Peptide 23]			587.33	348.10	
CFNVEWSVNARVNNSDCVSEQKISEWGKIKESC [SEQ ID NO: 141]	784.944	447.325			
LNFARKRIK [SEQ ID NO: 59]	557.056	294.6			
CNFARKRIKNPEGGLYCGDRQNESYLNFARKRC [SEQ ID NO: 117]	800.500	425.15			
CLSEENTSLSSTTNCMDILSEENTSLSSC [Peptide 39]			303.50	184.40	
VNARVNNSDPAAVAL [SEQ ID NO: 118]	426.444	219.15			
CRVNNSDPYSVALSELCQNESYLNFARKRIKNC [SEQ ID NO: 137]	743.167	398.05			
CLTILYGYRWPLPSCLYGYRWPLPSKLSC [Peptide 40]			879.72	508.45	
CVSEQKISEWGKIKESCGDRQNESYLNFARKRC [SEQ ID NO: 112]	846.778	462.45			
NESYLNFARKAAKNP [SEQ ID NO: 62]	505.278	279.1			
CERIVRGQTAESLAVHCQNESYLNFARKRIKNC [SEQ ID NO: 75]	833.444	455.55			
CHGAERIVRGQTAESLCNFARKRIKNPEGGLYC [SEQ ID NO: 89]	733.889	404.6			
CNSLMQLNDTRLYCSGEANTSDAFNWTC [Peptide 19]			564.11	299.55	
TVCEQKISEWGKIKE [SEQ ID NO: 94]	514.944	289.4			
CLSPSSLSLLHLQECTVDSENRTNLSSEC [Peptide 27]			427.89	263.00	
FARKRIKNP [SEQ ID NO: 67]	666.111	337.4			
CLYGYRWPLPSKLSCSDAFNWTVDSENRC [Peptide 36]			511.11	298.55	
